Test results from ChEMBL document CHEMBL1154338, “Synthesis of modified homo-N-nucleosides from the reactions of mesityl nitrile oxide with 9-allylpurines and their influence on lipid peroxidation and thrombin inhibition” (Bioorg Med Chem Lett, 2009).

Assays:
[1] = system: Radical scavenging activity; test: Antioxidant activity assessed as DPPH free radical scavenging activity at 0.05 mM after 20 mins; type: functional
[2] = system: Radical scavenging activity; test: Antioxidant activity assessed as DPPH free radical scavenging activity at 0.1 mM after 20 mins; type: functional
[3] = system: Radical scavenging activity; test: Antioxidant activity assessed as DPPH free radical scavenging activity at 0.05 mM after 60 mins; type: functional
[4] = system: Radical scavenging activity; test: Antioxidant activity assessed as DPPH free radical scavenging activity at 0.1 mM after 60 mins; type: functional
[5] = Antioxidant activity assessed as inhibition of xanthine-xanthine oxidase generated superoxide anion radical production at 100 uM by nitroblue tetrazolium method; type: functional; parameters: scale not given: the % may be the effect or the level left
[6] = Antioxidant activity assessed as inhibition of lipid peroxidation at 100 uM; type: functional; parameters: scale not given: the % may be the effect or the level left
[7] = Inhibition of soybean lipoxygenase; parameters: species or system Glycine max

Row | IC50 [7] | SMILES | Activity [1] | Activity [2] | Activity [3] | Activity [4] | Activity [5] | Activity [6]
1 | – | CC(Cc1ccc(O)c(O)c1)C(C)Cc1ccc(O)c(O)c1 (stereo not given) | 68% | 81% | 72% | 83% | – | –
2 | – | O=C(O)/C=C/c1ccc(O)c(O)c1 | – | – | – | – | 10% | –
3 | – | Cc1c(C)c2c(c(C)c1O)CCC(C)(C(=O)O)O2 (stereo not given) | – | – | – | – | – | 73%
4 | 100 µM | Cc1cc(C)c(C2=NOC(Cn3cnc4c(N5CCCC5)ncnc43)C2)c(C)c1 (stereo not given) | 11% | – | 11% | – | – | 52%
5 | 100 µM | Cc1cc(C)c(C2=NOC(Cn3cnc4c(N5CCOCC5)ncnc43)C2)c(C)c1 (stereo not given) | – | 4% | – | 4% | 1% | 81%
